Test results as given in patent US20090215758A1, “Use of 2,5-Disubstituted Thiazol-4-One Derivatives in Drugs” (Gruenenthal GmbH, priority 2005, published 2009).
Where a name gives a salt, the structure may show the parent alone.

Tests used:
[1] = molecular target: T1, VR1 (human) (Homo sapiens, UniProt Q8NER1); test: Functional study on vanilloid receptor (VR1), FLIPR Ca2+ assay in CHO K1 cells stably transfected with the VR1 gene; format: cell-based; settings: for inhibition at 10 µM / activation at 10 µM: CHO-K1, test compound 10 μM; for inhibition at 10 µM / VR1 (human) (% inhibition compared to 10 μM CP): 5 min incubation, then 100 nM capsaicin, compared to 10 μM CP; for activation at 10 µM / VR1 (human) (% stimulation compared to 10 μM CP): Ca2+ signal relative to 10 μM capsaicin (CP); for activation at 10 µM: read-out: VR1 (human) (% stimulation compared to 10 μM CP); for VR1 (human) (% inhibition compared to 10 μM CP) / VR1 (human) (% stimulation compared to 10 μM CP): test compound 10 μM; for EC50: unit inferred
T1 construct: expressed in transfected cells; host or cells: CHO K1 cells (ECACC), stably transfected
T1 sequence (Q8NER1 whole entry): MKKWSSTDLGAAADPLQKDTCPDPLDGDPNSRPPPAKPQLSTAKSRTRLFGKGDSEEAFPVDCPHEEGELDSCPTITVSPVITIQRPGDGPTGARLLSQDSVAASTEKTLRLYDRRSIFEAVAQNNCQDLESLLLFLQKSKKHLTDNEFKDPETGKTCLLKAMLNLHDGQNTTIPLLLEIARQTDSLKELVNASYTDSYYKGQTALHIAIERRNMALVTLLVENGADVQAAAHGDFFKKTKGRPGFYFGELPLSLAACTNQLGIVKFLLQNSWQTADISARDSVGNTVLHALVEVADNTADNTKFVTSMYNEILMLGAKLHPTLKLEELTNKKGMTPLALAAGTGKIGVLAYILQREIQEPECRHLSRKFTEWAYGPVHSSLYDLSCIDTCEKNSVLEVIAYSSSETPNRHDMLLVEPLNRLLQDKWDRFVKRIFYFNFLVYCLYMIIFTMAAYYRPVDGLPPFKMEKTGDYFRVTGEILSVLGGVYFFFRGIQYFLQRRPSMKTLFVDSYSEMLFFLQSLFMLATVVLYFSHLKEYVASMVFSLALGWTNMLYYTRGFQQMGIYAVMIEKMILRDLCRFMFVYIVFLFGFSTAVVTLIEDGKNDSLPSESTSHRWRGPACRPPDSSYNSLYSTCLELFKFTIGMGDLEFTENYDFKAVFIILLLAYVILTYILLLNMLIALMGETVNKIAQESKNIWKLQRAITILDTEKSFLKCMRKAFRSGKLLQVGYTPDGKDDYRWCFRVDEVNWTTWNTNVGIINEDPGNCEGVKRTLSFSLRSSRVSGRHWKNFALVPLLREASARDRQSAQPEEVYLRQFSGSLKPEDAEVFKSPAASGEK
Source text: The agonistic or antagonistic action of the substances to be tested on vanilloid receptor (VR1) can also be determined with the assay which follows. In this assay, the Ca^2+ current through the channel is quantified with the aid of a Ca^2+-sensitive dye (Fluo-4 type, Molecular Probes, Europe BV, Leiden, the Netherlands) in a fluorescent imaging plate reader (FLIPR, Molecular Devices, Sunnyvale, USA).
Chinese hamster ovary cells (CHO K1 cells, European Collection of Cell Cultures (ECACC) Great Britain) are transfected stably with the VR1 gene. For functional studies, these cells are plated out onto poly-D-lysine-coated black 96-well plates with a clear bottom (BD Biosciences, Heidelberg, Germany) in a density of 25 000 cells/well. The cells are incubated overnight at 37° C. and 5% CO2 in a culture medium (Ham's Nutrient Mixture F12, 10% by volume of FCS (fetal calf serum), 18 μg/ml of L-proline). The next day, the cells are incubated with Fluo-4 (Fluo-4 2 μM, Pluronic F127 0.01% by volume, Molecular Probes in HBSS (Hank's buffered saline solution), Gibco Invitrogen GmbH, Karlsruhe, Germany) at 37° C. for 30 minutes. Subsequently, the plates are washed 3 times with HBSS buffer and, after a further incubation of 15 minutes at room temperature, used for Ca^2+ measurement in FLIPR. The Ca^2+-dependent fluorescence is measured before and after addition of the substances to be studied (wavelength λex=488 nm, λem=540 nm). The quantification is effected by measuring the highest fluorescence intensity (FC, fluorescence counts) over the time.
The FLIPR protocol consists of 2 substance additions. First, the substances to be tested (10 μM) are pipetted onto the cells and the Ca current is compared with the control (capsaicin 10 μM) (% activation based on the Ca^2+ signal after addition of 10 μM capsaicin). After incubation for 5 minutes, 100 nM capsaicin is applied and the current of Ca^2+ is likewise determined.

[2] = molecular target: T2, vanilloid receptor 1 (VR1/TRPV1) of the rat species (Rattus norvegicus, UniProt O35433); test: Functional study on vanilloid receptor 1, FLIPR Ca2+ assay in rat dorsal root ganglia cells; format: cell-based; settings: for inhibition at 10 µM / activation at 10 µM / VR1 (rat) (% inhibition compared to 10 μM CP) / VR1 (rat) (% stimulation compared to 10 μM CP): test compound 10 μM; for inhibition at 10 µM / VR1 (rat) (% inhibition compared to 10 μM CP): 5 min incubation, then 100 nM capsaicin, relative to maximum inhibition with 10 μM capsaicin; for inhibition at 10 µM: read-out: VR1 (rat) (% inhibition compared to 10 μM CP); for activation at 10 µM / VR1 (rat) (% stimulation compared to 10 μM CP): Ca2+ signal relative to 10 μM capsaicin (CP); for activation at 10 µM: read-out: VR1 (rat) (% stimulation compared to 10 μM CP); for EC50: unit inferred
T2 construct: The spinal column is removed from beheaded rats; from tissue; host or cells: primary cells from rat dorsal root ganglia (DRGs)
T2 sequence (O35433 whole entry): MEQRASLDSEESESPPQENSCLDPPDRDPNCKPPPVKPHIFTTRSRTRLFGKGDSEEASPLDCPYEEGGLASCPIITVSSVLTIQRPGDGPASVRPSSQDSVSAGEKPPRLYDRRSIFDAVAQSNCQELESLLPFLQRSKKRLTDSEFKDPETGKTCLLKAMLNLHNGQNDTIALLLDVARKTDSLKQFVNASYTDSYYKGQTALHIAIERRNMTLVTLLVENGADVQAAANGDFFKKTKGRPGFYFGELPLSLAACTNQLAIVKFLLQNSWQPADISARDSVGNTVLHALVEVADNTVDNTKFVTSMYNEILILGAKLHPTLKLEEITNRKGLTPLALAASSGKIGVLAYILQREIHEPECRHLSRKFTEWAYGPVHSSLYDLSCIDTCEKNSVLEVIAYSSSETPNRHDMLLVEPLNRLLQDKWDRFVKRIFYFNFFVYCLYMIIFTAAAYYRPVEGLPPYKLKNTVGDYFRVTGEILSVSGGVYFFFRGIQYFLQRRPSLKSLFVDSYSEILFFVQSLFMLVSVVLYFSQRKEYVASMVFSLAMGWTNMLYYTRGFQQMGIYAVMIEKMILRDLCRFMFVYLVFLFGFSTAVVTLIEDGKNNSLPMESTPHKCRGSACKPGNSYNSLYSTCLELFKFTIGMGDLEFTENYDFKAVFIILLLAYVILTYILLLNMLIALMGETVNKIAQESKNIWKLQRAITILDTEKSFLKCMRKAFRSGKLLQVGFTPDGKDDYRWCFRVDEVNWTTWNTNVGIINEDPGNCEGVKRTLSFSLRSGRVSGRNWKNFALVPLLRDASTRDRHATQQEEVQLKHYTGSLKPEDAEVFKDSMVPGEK
Experimental: The agonistic or antagonistic action of the substances to be studied on the vanilloid receptor 1 (VR1/TRPV1) of the rat species can be determined with the following assay. In this assay, the Ca^2+ current through the receptor channel is quantified with the aid of a Ca^2+-sensitive dye (Fluo-4 type, Molecular Probes Europe BV, Leiden the Netherlands) in a fluorescent imaging plate reader (FLIPR, Molecular Devices, Sunnyvale, USA).
Complete medium: 50 ml HAMS F12 Nutrient Mixture (Gibco Invitrogen GmbH, Karlsruhe, Germany) with 10% by volume of FCS (fetal calf serum, Gibco Invitrogen GmbH, Karlsruhe, Germany, heat-inactivated);
2 mM L-glutamine (Sigma, Munich, Germany);
1% by weight of AA solution (antibiotic/antimycotic solution, PAA, Pasching, Austria) and 25 ng/ml of NGF medium (2.5 S, Gibco Invitrogen GmbH, Karlsruhe, Germany)
Cell culture plate: poly-D-lysine-coated, black 96-hole plates with a clear bottom (96 well black/clear plate, BD Biosciences, Heidelberg, Germany) are additionally coated with laminin (Gibco Invitrogen GmbH, Karlsruhe, Germany) by diluting laminin to a concentration of 100 μg/ml with PBS (Ca—Mg-free PBS, Gibco Invitrogen GmbH, Karlsruhe, Germany). Aliquots having a concentration of 100 μg/ml of laminin are withdrawn and stored at −20° C. The aliquots are diluted with PBS in a ratio of 1:10 to 10 μg/ml of laminin and in each case 50 μl of the solution are pipetted into a well of the cell culture plate. The cell culture plates are incubated at 37° C. for at least two hours, the supernatant solution is removed by suction and the wells are each washed twice with PBS. The coated cell culture plates are stored with supernatant PBS which is not removed until directly before the application of the cells.
The spinal column is removed from beheaded rats and placed directly into cold HBSS buffer (Hank's buffered saline solution, Gibco Invitrogen GmbH, Karlsruhe, Germany), i.e. placed in an ice bath, which has been admixed with 1% by volume of an AA solution (antibiotic/antimycotic solution, PAA, Pasching, Austria). The spinal column is severed longitudinally and removed from the spinal canal together with fasciae. Subsequently, the dorsal root ganglia (DRGs) are removed and in turn stored in cold HBSS buffer admixed with 1% by volume of an AA solution. The DRGs freed completely of blood residues and spinal nerves are in each case transferred to 500 μl of cold type 2 collagenase (PAA, Pasching, Austria) and incubated at 37° C. for 35 minutes. […] After complete incubation, the enzyme solution is cautiously pipetted off and the remaining DRGs are each suspended with 500 μl of complete medium.
The DRGs are each suspended repeatedly, drawn through cannulas No. 1, No. 12 and No. 16 by means of a syringe and transferred to 50 ml Falcon tubes which are made up to 15 ml with complete medium. The contents of each Falcon tube are in each case filtered through a 70 μm Falcon filter insert and centrifuged at 1200 revolutions and room temperature for 10 minutes. The resulting pellet is in each case taken up in 250 μl of complete medium and the cell count is determined.
The number of cells in the suspension is adjusted to 3 times 10^5 per ml and in each case 150 μl of this suspension are added to one well of the cell culture plates coated as described above.
Subsequently, the cells are laden with 2 μM Fluo-4 and 0.01% by volume of Pluronic F127 (Molecular Probes Europe BV, Leiden, the Netherlands) in HBSS buffer (Hank's buffered saline solution, Gibco Invitrogen GmbH, Karlsruhe, Germany) at 37° C. for 30 min, washed 3× with HBSS buffer and, after a further incubation of 15 minutes, used in the FLIPR assay at room temperature for Ca^2+ measurement. The Ca^2+-dependent fluorescence is measured before and after addition of substances (λex=488 nm, λem=540 nm). The quantification is effected by the measurement of the highest fluorescence intensity (FC, fluorescence counts) over the time.

O=C1N=C(N2CCSCC2)SC1=Cc1cccc(C(=O)N2CCN(c3nsnc3Cl)CC2)c1 [Example 115, 5-{3-[4-(4-chloro-[1,2,5]thiadiazol-3-yl)piperazine-1-carbonyl]benzylidene}-2-thiomorpholin-4-ylthiazol-4-one]
inhibition at 10 µM [1]: 66.2% | activation at 10 µM [1]: 68.2% | inhibition at 10 µM [2]: 95.8% | activation at 10 µM [2]: 128%

CC(C)c1ccc(C=C2SC(N3CCOCC3)=NC2=O)cc1 [Example 135, 5-(4-isopropylbenzylidene)-2-morpholin-4-ylthiazol-4-one]
VR1 (human) (% inhibition compared to 10 μM CP) [1]: 84.29% | VR1 (human) (% stimulation compared to 10 μM CP) [1]: 85.02% | VR1 (rat) (% inhibition compared to 10 μM CP) [2]: 87.60% | VR1 (rat) (% stimulation compared to 10 μM CP) [2]: 79.68%

CC(C)c1ccc(C=C2SC(N3CCSCC3)=NC2=O)cc1 [Example 136, 5-(4-isopropylbenzylidene)-2-thiomorpholin-4-ylthiazol-4-one]
inhibition at 10 µM [1]: 86.7% | activation at 10 µM [1]: 114% | inhibition at 10 µM [2]: 96.9% | activation at 10 µM [2]: 84%

Cc1ccc(N2CCN(C3=NC(=O)C(=Cc4ccc(C(C)(C)C)cc4)S3)CC2)nn1 [Example 154, 5-(4-tert-butylbenzylidene)-2-[4-(6-methylpyridazin-3-yl)piperazin-1-yl]thiazol-4-one]
inhibition at 10 µM [1]: 34.2% | activation at 10 µM [1]: 6.56% | inhibition at 10 µM [2]: 54.1% | activation at 10 µM [2]: 3.99%

Cc1ccc(N2CCN(C3=NC(=O)C(=CC=Cc4ccccc4)S3)CC2)nn1 [Example 161, 2-[4-(6-methylpyridazin-3-yl)piperazin-1-yl]-5-(3-phenylallylidene)thiazol-4-one]
inhibition at 10 µM [1]: 47.2% | activation at 10 µM [1]: 2.43% | inhibition at 10 µM [2]: 17% | activation at 10 µM [2]: 2.5%

Br.Cc1ccc(C=C2SC(N3CCOCC3)=NC2=O)cc1 [Example 176, 5-(4-methylbenzylidene)-2-morpholin-4-ylthiazol-4-one hydrobromide]
activation at 10 µM [1]: 14.5% | VR1 (human) (% inhibition compared to 10 μM CP) [1]: 35.32% | inhibition at 10 µM [2]: 97.5% | activation at 10 µM [2]: 44.7%

Br.CC(C)c1ccc(C=C2SC(N3CCOCC3)=NC2=O)cc1 [Example 179, 5-(4-isopropylbenzylidene)-2-morpholin-4-ylthiazol-4-one hydrobromide]
VR1 (human) (% inhibition compared to 10 μM CP) [1]: 30.72% | VR1 (human) (% stimulation compared to 10 μM CP) [1]: 5.04% | VR1 (rat) (% inhibition compared to 10 μM CP) [2]: 38.36% | VR1 (rat) (% stimulation compared to 10 μM CP) [2]: 41.89%

O=C1N=C(N2CCOCC2)SC1=CC=Cc1ccccc1 [Example 189, 2-morpholin-4-yl-5-(3-phenylallylidene)thiazol-4-one hydrobromide]
inhibition at 10 µM [1]: 8.14% | activation at 10 µM [1]: 11.2% | EC50 [1]: > 50 µM | inhibition at 10 µM [2]: 5.61% | activation at 10 µM [2]: 6.64% | EC50 [2]: > 25 µM

Br.O=C1N=C(N2CCSCC2)SC1=CC=Cc1ccccc1 [Example 190, 5-(3-phenylallylidene)-2-thiomorpholin-4-ylthiazol-4-one hydrobromide]
VR1 (human) (% inhibition compared to 10 μM CP) [1]: 32.35% | VR1 (human) (% stimulation compared to 10 μM CP) [1]: 34.09% | EC50 [1]: > 25 µM | VR1 (rat) (% inhibition compared to 10 μM CP) [2]: 83.13% | VR1 (rat) (% stimulation compared to 10 μM CP) [2]: 51.35% | EC50 [2]: 14.3 µM

O=C1N=C(N2CCCCC2)SC1=CC=Cc1ccccc1 [Example 191, 5-(3-phenylallylidene)-2-piperidin-1-ylthiazol-4-one hydrobromide]
inhibition at 10 µM [1]: 8.04% | activation at 10 µM [1]: 15.8% | EC50 [1]: > 50 µM | inhibition at 10 µM [2]: 17.6% | activation at 10 µM [2]: -0.17% | EC50 [2]: > 25 µM

O=C1N=C(N2CCCCCC2)SC1=CC=Cc1ccccc1 [Example 192, 2-azepan-1-yl-5-(3-phenylallylidene)thiazol-4-one hydrobromide]
inhibition at 10 µM [1]: 10.3% | activation at 10 µM [1]: 16.7% | EC50 [1]: > 50 µM | inhibition at 10 µM [2]: 2.18% | activation at 10 µM [2]: 1.34% | EC50 [2]: > 50 µM

O=C1N=C(N2CCSCC2)SC1=Cc1cccc(C(F)(F)F)c1 [Example 195, 2-thiomorpholin-4-yl-5-(3-trifluoromethylbenzylidene)thiazol-4-one hydrobromide]
inhibition at 10 µM [1]: 90.3% | activation at 10 µM [1]: 80.3% | EC50 [1]: 5.9 µM | inhibition at 10 µM [2]: 96.1% | activation at 10 µM [2]: 94.3% | EC50 [2]: 2.2 µM

CC(C)(C)c1ccc(C=C2SC(N3CCOCC3)=NC2=O)cc1 [Example 197, 5-(4-tert-butylbenzylidene)-2-morpholin-4-ylthiazol-4-one]
inhibition at 10 µM [1]: 72.4% | activation at 10 µM [1]: 48% | inhibition at 10 µM [2]: 94.3% | VR1 (rat) (% stimulation compared to 10 μM CP) [2]: 63.86%

CC(C)(C)c1ccc(C=C2SC(N3CCSCC3)=NC2=O)cc1 [Example 198, 5-(4-tert-butylbenzylidene)-2-thiomorpholin-4-ylthiazol-4-one hydrobromide]
inhibition at 10 µM [1]: 76.7% | activation at 10 µM [1]: 54.3% | EC50 [1]: 1.02 µM | inhibition at 10 µM [2]: 97.6% | activation at 10 µM [2]: 60.7% | EC50 [2]: 1.12 µM

CC(C)(C)c1ccc(C=C2SC(N3CCCC3)=NC2=O)cc1 [Example 199, 5-(4-tert-butylbenzylidene)-2-pyrrolidin-1-ylthiazol-4-one hydrobromide]
inhibition at 10 µM [1]: 4.43% | activation at 10 µM [1]: 9.64% | inhibition at 10 µM [2]: 69.5% | activation at 10 µM [2]: 42.9%
